According to US4613505A, “Ester of flurbiprofen and emulsion containing the same” (The Green Cross Corporation, priority 1983, dated 1986):
Like-named read-outs stand apart in the source and are kept apart here.

Assay: Hydrolysis in human articular synovia
Type: in vitro ADME
Conditions: for metabolised at 1 h: human, articular synovia, 60 minutes at 37° C., read-out: Hydrolysis rate
Method: Into 1 ml of articular synovia of a patient with rheumatoid or osteoarthritis, was added 10 ml of an acetone solution of ethyl 2-(2-fluoro-4-biphenylyl)propionate(ethyl flurbiprofen ester: compound 1) or acetoxymethyl 2-(2-fluoro-4-biphenylyl)propionate(acetoxymethyl flurbiprofen ester; compound 2) (each being contained in an equimolar amount to 50 ng of flurbiprofen), respectively, and the mixture was incubated for 60 minutes at 37° C. The concentration of flurbiprofen formed by hydrolysis was then determined by gas chromatography.

Structure (SMILES) | hydrolysis in human articular synovia (in words) | metabolised at 1 h (patient five (Rheumatoid)) [%] | metabolised at 1 h (patient four (Rheumatoid)) [%] | metabolised at 1 h (patient one (Rheumatoid)) [%] | metabolised at 1 h (patient three (Osteoarthritis)) [%] | metabolised at 1 h (patient two (Unknown)) [%]
CCOC(=O)C(C)c1ccc(-c2ccccc2)c(F)c1 (stereo not drawn) [Compound 1, ethyl 2-(2-fluoro-4-biphenylyl)propionate] | substantially not hydrolyzed | 0 | 0 | 25.8 | 0 | 2
CC(=O)OCOC(=O)C(C)c1ccc(-c2ccccc2)c(F)c1 (stereo not drawn) [Compound 2, acetoxymethyl 2-(2-fluoro-4-biphenylyl)propionate] | effectively hydrolyzed | 65.7 | 64.1 | 91.3 | 64.7 | 84.4
